Experimental data from patent publication US20100184815A1 (priority 2008, published 2010).
Read-outs that look alike come from different tables or passages of the source.

Assays:
[1] = target: T1, Gal-4 hPPARα (Homo sapiens, UniProt Q07869); assay: Gal4-hPPARα transient transfection reporter assay in Cos cells; assay type: cell-based; conditions: luciferase reporter, 24 hours with compound, scale 1-5, read-out: Gal-4 hPPAR α EC50 (scaled number)
T1 construct: Plasmids pGal4-hPPARα, pGal4-hPPARγ, pGal4-hPPARδ and pG5-TK-pGL3 were constructed as previously described by Staels, Bart, et al., Nature 1998 Jun; 25
T1 sequence (Q07869 200-468 limits assumed): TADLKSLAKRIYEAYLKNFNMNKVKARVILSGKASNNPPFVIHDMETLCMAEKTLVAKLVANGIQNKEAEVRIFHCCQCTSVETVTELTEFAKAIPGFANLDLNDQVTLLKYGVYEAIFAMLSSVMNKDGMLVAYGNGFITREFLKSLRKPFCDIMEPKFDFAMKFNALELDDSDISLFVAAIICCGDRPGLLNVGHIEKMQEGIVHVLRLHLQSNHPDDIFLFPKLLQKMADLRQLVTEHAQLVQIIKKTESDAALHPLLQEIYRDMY
How it was run: (§1)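 Cos cells transiently co-transfected with Gal4-hPPAR expression plasmid, pG5-TK-pGL3 luciferase reporter and β-galactosidase control, then treated 24 h with increasing compound concentrations in DMEM containing 0.2% FCS. Luciferase normalised to β-galactosidase; EC50 from curve fit, at least three experiments.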

[2] = target: T2, Gal-4 hPPARγ (Homo sapiens, UniProt P37231); assay: Gal4-hPPARγ transient transfection reporter assay in Cos cells; assay type: cell-based; conditions: luciferase reporter, 24 hours with compound, scale 1-5, read-out: Gal-4 hPPAR γ EC50 (scaled number)
T2 construct: Plasmids pGal4-hPPARα, pGal4-hPPARγ, pGal4-hPPARδ and pG5-TK-pGL3 were constructed as previously described by Staels, Bart, et al., Nature 1998 Jun; 25
T2 sequence (P37231 238-505 limits assumed): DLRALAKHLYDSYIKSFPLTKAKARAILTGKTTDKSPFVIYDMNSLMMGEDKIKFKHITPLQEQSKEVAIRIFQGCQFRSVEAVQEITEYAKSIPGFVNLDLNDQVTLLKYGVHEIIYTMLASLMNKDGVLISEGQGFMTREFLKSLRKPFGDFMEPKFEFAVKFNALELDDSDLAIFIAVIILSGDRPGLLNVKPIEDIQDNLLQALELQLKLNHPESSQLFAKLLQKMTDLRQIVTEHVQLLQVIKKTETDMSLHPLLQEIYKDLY
How it was run: as §1

[3] = target: T3, Gal-4 hPPARβ/δ (Homo sapiens, UniProt Q03181); assay: Gal4-hPPARδ transient transfection reporter assay in Cos cells; assay type: cell-based; conditions: luciferase reporter, 24 hours with compound, scale 1-5, read-out: Gal-4 hPPAR β/δ EC50 (scaled number)
T3 construct: Plasmids pGal4-hPPARα, pGal4-hPPARγ, pGal4-hPPARδ and pG5-TK-pGL3 were constructed as previously described by Staels, Bart, et al., Nature 1998 Jun; 25
T3 sequence (Q03181 171-441 limits assumed): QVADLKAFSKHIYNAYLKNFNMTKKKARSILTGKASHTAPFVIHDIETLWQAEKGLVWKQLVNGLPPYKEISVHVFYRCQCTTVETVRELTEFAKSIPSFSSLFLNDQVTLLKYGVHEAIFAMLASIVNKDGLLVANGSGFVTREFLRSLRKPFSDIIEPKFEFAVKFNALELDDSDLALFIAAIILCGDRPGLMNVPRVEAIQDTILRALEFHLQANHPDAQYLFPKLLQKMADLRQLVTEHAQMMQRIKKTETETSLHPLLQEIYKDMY
How it was run: as §1

[4] = test system: pig liver esterase; assay: Metabolism studies using pig liver esterase; assay type: in vitro ADME; conditions: 37° C.
Experimental: The esterase-mediated metabolism of these compounds was studied using commercially available pig liver esterase in the presence and absence of human plasma proteins. The disappearance of parent was monitored over the time course of the incubations using a LC-UV detection system.
A stock solution and working stock solution was prepared for each proprietary compound as described for the human liver microsomal incubations. Working solutions of pig liver esterase in potassium phosphate buffer ([…], pH 7.4) and pig liver esterase in human plasma protein were prepared by dissolving pig liver esterase (2.51 mg) in the phosphate buffer or plasma protein solutions, respectively.
A set of three Eppendorf microfuge tubes (1.5 mL) was appropriately labeled. To each tube was added 1.5 mL of phosphate buffer, pig liver esterase in buffer, or pig liver esterase in human plasma protein solution. These solutions were pre-incubated (37° C., 900 rpm) and the reactions were initiated by adding an aliquot (37.5 μL) of the working solution of proprietary compound to each tube. An aliquot (100 μL) from each tube was removed at time 0, 5, 30, 60, and 120 min and added to a tube containing acetonitrile (200 μL) to stop the reaction.
The samples were centrifuged at 14000 g for 15 minutes at 4° C. The supernatant was transferred to clean labeled HPLC injection vials and stored at −80° C. until analyzed. An aliquot of the supernatant (25 μL) was injected onto the LC-UV system for analysis.
Half lives of a sample of test articles is noted in the following table. Half life was determined in the presence or absence of plasma.

[5] = pig liver esterase in human plasma protein solution, read-out: Pig Liver Esterase (t1/2 min.) (+) Plasma
[6] = pig liver esterase in phosphate buffer pH 7.4, no plasma, read-out: Pig Liver Esterase (t1/2 min.) (−) Plasma
[7] = pig liver esterase in human plasma protein solution

| EC50 [1] [nM] | EC50 [2] [nM] | EC50 [3] [nM] | half-life at 4.9 µM [4, 5] [min] | half-life at 4.9 µM [4, 6] [min] | Pig Liver Esterase (t1/2 min.) (+) Plasma [4, 7] | SMILES |
| --- | --- | --- | --- | --- | --- | --- |
| 51 to 200 | > 1000 | > 1000 | > 120 | 19 |  | Cc1ccc(Cn2cc(COC(=O)c3ccc(SC(C)(C)C(=O)O)cc3)cn2)cc1 [Compound 3, 2-methyl-2-(4-(((1-(4-methylbenzyl)-1H-pyrazol-4-yl)methoxy)carbonyl)phenylthio)propanoic acid] |
| 1 to 50 | > 1000 | > 1000 |  | 9 | Stable | CCCCCCn1c(COC(=O)c2ccc(OC(C)(C)C(=O)O)cc2)nn(Cc2ccc(C(C)(C)C)cc2)c1=O [Compound 188, 2-(4-(((1-(4-tert-butylbenzyl)-4-hexyl-5-oxo-4,5-dihydro-1H-1,2,4-triazol-3-yl)methoxy)carbonyl)phenoxy)-2-methylpropanoic acid] |
| 51 to 200 | > 1000 | > 1000 | 160 | 29 |  | COC(c1ccc(Cn2cc(COC(=O)c3ccc(SC(C)(C)C(=O)O)cc3)nn2)cc1)(C(F)(F)F)C(F)(F)F [Compound 75, 2-(4-(((1-(4-(1,1,1,3,3,3-hexafluoro-2-methoxypropan-2-yl)benzyl)-1H-1,2,3-triazol-4-yl)methoxy)carbonyl)phenylthio)-2-methylpropanoic acid] |
| 1 to 50 | 51 to 200 | > 1000 | > 120 | < 5 |  | CCCCCCn1c(COC(=O)c2ccc(SC(C)(C)C(=O)O)cc2)nn(Cc2ccc(C)cc2)c1=O [Compound 160, 2-(4-(((4-hexyl-1-(4-methylbenzyl)-5-oxo-4,5-dihydro-1H-1,2,4-triazol-3-yl)methoxy)carbonyl)phenylthio)-2-methylpropanoic acid] |
| 1 to 50 | > 1000 | > 1000 | 83 | 19 |  | Cc1ccc(Cn2cc([C@@H](C)OC(=O)c3ccc(SC(C)(C)C(=O)O)cc3)nn2)cc1 [Compound 87, (R)-2-methyl-2-(4-((1-(1-(4-methylbenzyl)-1H-1,2,3-triazol-4-yl)ethoxy)carbonyl)phenylthio)propanoic acid] |
| 1 to 50 | > 1000 | > 1000 |  | 31 | Stable | CCCn1c(COC(=O)c2ccc(OC(C)(C)C(=O)O)cc2)nn(Cc2ccc(C(C)(C)C)cc2)c1=O [Compound 150, 2-(4-(((1-(4-tert-butylbenzyl)-5-oxo-4-propyl-4,5-dihydro-1H-1,2,4-triazol-3-yl)methoxy)carbonyl)phenoxy)-2-methylpropanoic acid] |
| 1 to 50 | 1 to 50 | > 1000 | 105 | < 5 |  | CCCCCCCn1c(COC(=O)c2ccc(SC(C)(C)C(=O)O)cc2)nn(Cc2ccc(C(C)(C)C)cc2)c1=O [Compound 189, 2-(4-(((1-(4-tert-butylbenzyl)-4-heptyl-5-oxo-4,5-dihydro-1H-1,2,4-triazol-3-yl)methoxy)carbonyl)phenylthio)-2-methylpropanoic acid] |
| 1 to 50 | 51 to 200 | 51 to 200 | > 120 | < 5 |  | CCCCCCCCn1c(COC(=O)c2ccc(SC(C)(C)C(=O)O)cc2)nn(Cc2ccc(C)cc2)c1=O [Compound 161, 2-methyl-2-(4-(((1-(4-methylbenzyl)-4-octyl-5-oxo-4,5-dihydro-1H-1,2,4-triazol-3-yl)methoxy)carbonyl)phenylthio)propanoic acid] |
| 1 to 50 | > 1000 | > 1000 |  | 31 | Stable | CCCCCCn1c(COC(=O)c2ccc(OC(C)(C)C(=O)O)cc2)nn(Cc2ccc(C)cc2)c1=O [Compound 151, 2-(4-(((4-hexyl-1-(4-methylbenzyl)-5-oxo-4,5-dihydro-1H-1,2,4-triazol-3-yl)methoxy)carbonyl)phenoxy)-2-methylpropanoic acid] |
| 201 to 999 | > 1000 | > 1000 | > 120 | 64 |  | CC(C)(Sc1ccc(C(=O)OCCc2cn(Cc3ccc(C(F)(F)F)cc3)nn2)cc1)C(=O)O [Compound 91, 2-methyl-2-(4-((2-(1-(4-(trifluoromethyl)benzyl)-1H-1,2,3-triazol-4-yl)ethoxy)carbonyl)phenylthio)propanoic acid] |
| 1 to 50 | > 1000 | > 1000 |  | 8 | Stable | CCCCCCCn1c(COC(=O)c2ccc(OC(C)(C)C(=O)O)cc2)nn(Cc2ccc(C(C)(C)C)cc2)c1=O [Compound 190, 2-(4-(((1-(4-tert-butylbenzyl)-4-heptyl-5-oxo-4,5-dihydro-1H-1,2,4-triazol-3-yl)methoxy)carbonyl)phenoxy)-2-methylpropanoic acid] |
| 1 to 50 | > 1000 | > 1000 | 97 | 3 |  | CCCn1c(COC(=O)c2ccc(SC(C)(C)C(=O)O)cc2)nn(Cc2ccc(C(C)(C)C)cc2)c1=O [Compound 159, 2-(4-(((1-(4-tert-butylbenzyl)-5-oxo-4-propyl-4,5-dihydro-1H-1,2,4-triazol-3-yl)methoxy)carbonyl)phenylthio)-2-methylpropanoic acid] |
| 1 to 50 | 51 to 200 | > 1000 | 64 | 26 |  | CCCCCCn1c(COC(=O)c2ccc(SC(C)(C)C(=O)O)cc2)nn(Cc2ccc(C(C)(C)C)cc2)c1=O [Compound 187, 2-(4-(((1-(4-tert-butylbenzyl)-4-hexyl-5-oxo-4,5-dihydro-1H-1,2,4-triazol-3-yl)methoxy)carbonyl)phenylthio)-2-methylpropanoic acid] |
| 1 to 50 | > 1000 | > 1000 | 121 | 21 |  | CC(C)(Sc1ccc(C(=O)OCc2cn(Cc3ccc(C(F)(F)F)cc3)nn2)cc1)C(=O)O [Compound 67, 2-methyl-2-(4-(((1-(4-(trifluoromethyl)benzyl)-1H-1,2,3-triazol-4-yl)methoxy)carbonyl)phenylthio)propanoic acid] |
| 1 to 50 | 51 to 200 | > 1000 |  | < 5 | Stable | CCCCCCCn1c(COC(=O)c2ccc(SC(C)(C)C(=O)O)cc2)nn(Cc2ccc(C)cc2)c1=O [Compound 191, 2-(4-(((4-heptyl-1-(4-methylbenzyl)-5-oxo-4,5-dihydro-1H-1,2,4-triazol-3-yl)methoxy)carbonyl)phenylthio)-2-methylpropanoic acid] |
